Reference: PubChem BioAssay AID248 (DTP/NCI, 2004)
Where “and” joins values, the source holds several entries; their conditions need not be identical. Identical values can stand only once. Inconclusive results and toxic doses are left out. Cut-off read from the data, not from the text of the source: active = T/C of 150% or more; inactive = T/C below 125%.

Tested on: L1210 leukemia ip in BDF1 mice, survival T/C
Assay: NCI In Vivo Anticancer Drug Screen. Data for tumor model L1210 Leukemia (intraperitoneal) in B6D2F1 (BDF1) mice
Conditions: endpoint: mean survival time, higher = longer survival
Summary of the method: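 Tumor was transplanted into mice, which were then dosed with test compound or vehicle alone. Survival was recorded for each group, and the treated figure was expressed relative to the control figure.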

[1] = dose: 100.0 mg/kg/injection, schedule: Q04DX002 (ip), vehicle: saline
[2] = dose: 100.0 mg/kg/injection, schedule: Q04DX003 (ip), vehicle: saline with Tween-80
[3] = dose: 100.0 mg/kg/injection, schedule: Q01DX009 (ip), vehicle: Klucel (hydroxypropylcellulose) (HPC)
[4] = dose: 200.0 mg/kg/injection, schedule: Q01DX009 (ip), vehicle: Klucel (hydroxypropylcellulose) (HPC)
[5] = dose: 400.0 mg/kg/injection, schedule: Q01DX009 (ip), vehicle: Klucel (hydroxypropylcellulose) (HPC)
[6] = dose: 100.0 mg/kg/injection, schedule: Q04DX003 (ip), vehicle: Klucel (hydroxypropylcellulose) (HPC)
[7] = dose: 200.0 mg/kg/injection, schedule: Q04DX003 (ip), vehicle: Klucel (hydroxypropylcellulose) (HPC)
[8] = dose: 400.0 mg/kg/injection, schedule: Q04DX003 (ip), vehicle: Klucel (hydroxypropylcellulose) (HPC)
[9] = dose: 100.0 mg/kg/injection, schedule: Q01DX001 (ip), vehicle: other
[10] = dose: 200.0 mg/kg/injection, schedule: Q01DX001 (ip), vehicle: other
[11] = dose: 100.0 mg/kg/injection, schedule: Q04DX002 (ip), vehicle: Klucel (hydroxypropylcellulose) (HPC)
[12] = dose: 200.0 mg/kg/injection, schedule: Q04DX002 (ip), vehicle: Klucel (hydroxypropylcellulose) (HPC)
[13] = dose: 400.0 mg/kg/injection, schedule: Q04DX002 (ip), vehicle: Klucel (hydroxypropylcellulose) (HPC)
[14] = dose: 150.0 mg/kg/injection, schedule: Q01DX001 (ip), vehicle: saline
[15] = dose: 100.0 mg/kg/injection, schedule: Q04DX003 (ip), vehicle: saline
[16] = dose: 100.0 mg/kg/injection, schedule: Q01DX001 (ip), vehicle: saline
[17] = dose: 200.0 mg/kg/injection, schedule: Q01DX001 (ip), vehicle: saline
[18] = dose: 100.0 mg/kg/injection, schedule: Q01DX001 (ip), vehicle: Klucel (hydroxypropylcellulose) (HPC)

Measured: T/C

CCCCOCCOCCOc1ccc(Cl)cc1
inactive: [1] 100 % of control | dose: 200.0 mg/kg/injection, schedule: Q04DX002 (ip), vehicle: saline 113 % of control | dose: 400.0 mg/kg/injection, schedule: Q04DX002 (ip), vehicle: saline 100 % of control

CC12CC1(C)C(=O)OC2=O (stereo not drawn)
inactive: [2] 87 % of control | dose: 200.0 mg/kg/injection, schedule: Q04DX003 (ip), vehicle: saline with Tween-80 92 % of control

CCCCCCOC(=O)Nc1ccc([N+](=O)[O-])cc1OC
inactive: [3] 103 % of control | [4] 100 % of control | [5] 95 % of control

CC(=O)OC1=C(Cl)C(=O)C(OC(C)=O)=C(Cl)C1=O
inactive: dose: 50.0 mg/kg/injection, schedule: Q04DX003 (ip), vehicle: Klucel (hydroxypropylcellulose) (HPC) 106 % of control | [6] 100 % of control | [7] 100 % of control | [8] 92 % of control

CN1c2ccc(Br)c[c]2[Sn]([c]2ccccc2)([c]2ccccc2)[c]2cc(Br)ccc21
inactive: [9] 91 % of control | [10] 96 % of control | dose: 400.0 mg/kg/injection, schedule: Q01DX001 (ip), vehicle: other 96 % of control

CCOP(=O)(OC(C)CC)OC(C)CC (stereo not drawn)
inactive: dose: 100.0 mg/kg/injection, schedule: Q04DX003 (ip), vehicle: carboxymethylcellulose (CMC) 93 % of control | dose: 200.0 mg/kg/injection, schedule: Q04DX003 (ip), vehicle: carboxymethylcellulose (CMC) 87 % of control

Nc1ccc(C(=O)NCC(=O)O)cc1
inactive: [11] 93 % of control | [12] 104 % of control | [13] 100 % of control

O=C1Nc2ccccc2C12CNCS2 (stereo not drawn)
inactive: dose: 75.0 mg/kg/injection, schedule: Q01DX001 (ip), vehicle: saline 104 % of control | [14] 98 % of control | dose: 300.0 mg/kg/injection, schedule: Q01DX001 (ip), vehicle: saline 95 % of control

Nc1ncns1
inactive: dose: 66.0 mg/kg/injection, schedule: Q04DX003 (ip), vehicle: saline 104 % of control | [15] 117 % of control | dose: 150.0 mg/kg/injection, schedule: Q04DX003 (ip), vehicle: saline 120 % of control

O=C(c1ccccc1)C(C(=O)c1ccccc1)C(C[N+](=O)[O-])c1ccccc1 (stereo not drawn)
inactive: dose: 100.0 mg/kg/injection, schedule: Q01DX001 (ip), vehicle: gum acacia 86 % of control | dose: 200.0 mg/kg/injection, schedule: Q01DX001 (ip), vehicle: gum acacia 86 % of control | dose: 400.0 mg/kg/injection, schedule: Q01DX001 (ip), vehicle: gum acacia 90 % of control

CC(C)OCc1c(N)nc(=S)[nH]c1C(=O)O
inactive: dose: 12.0 mg/kg/injection, schedule: Q01DX009 (ip), vehicle: saline 90 % of control | dose: 25.0 mg/kg/injection, schedule: Q01DX009 (ip), vehicle: saline 97 % of control | dose: 25.0 mg/kg/injection, schedule: Q04DX003 (ip), vehicle: saline 106 % of control | dose: 50.0 mg/kg/injection, schedule: Q01DX009 (ip), vehicle: saline 103 % of control and 92 % of control | dose: 50.0 mg/kg/injection, schedule: Q04DX003 (ip), vehicle: saline 97 % of control | [15] 102 % of control and 90 % of control

O=NN1CCCC1C(=O)O (stereo not drawn)
inactive: [16] 101 % of control | [17] 101 % of control and 93 % of control

COc1c(NC(=O)CC(C)=O)cccc1[N+](=O)[O-]
inactive: [3] 103 % of control | [11] 92 % of control | [4] 101 % of control | [12] 92 % of control | [5] 98 % of control | [13] 101 % of control

ONC12CCCCC1(Cl)CCCC2 (stereo not drawn)
inactive: [14] 94 % of control

CCSCC1OC(n2ncc3c(N)ncnc32)C(O)C1O (stereo not drawn)
inactive: [18] 98 % of control | dose: 200.0 mg/kg/injection, schedule: Q01DX001 (ip), vehicle: Klucel (hydroxypropylcellulose) (HPC) 93 % of control | dose: 400.0 mg/kg/injection, schedule: Q01DX001 (ip), vehicle: Klucel (hydroxypropylcellulose) (HPC) 97 % of control

Cn1c[n+](-c2ccccc2)c([S-])n1
inactive: [16] 101 % of control | [17] 101 % of control | dose: 400.0 mg/kg/injection, schedule: Q01DX001 (ip), vehicle: saline 100 % of control

CCCC(C)(O)C(=O)O (stereo not drawn)
inactive: dose: 25.0 mg/kg/injection, schedule: Q04DX002 (ip), vehicle: saline 100 % of control | dose: 50.0 mg/kg/injection, schedule: Q04DX002 (ip), vehicle: saline 103 % of control | [1] 95 % of control

O=C(COc1ccc(Cl)cc1Cl)NCCSCc1ccccc1
inactive: [3] 91 % of control | [5] 89 % of control

CCOC(=O)CN(c1c(C)cc(C)c(N(CC(=O)OCC)S(=O)(=O)c2ccccc2)c1C)S(=O)(=O)c1ccccc1
inactive: [15] 93 % of control | dose: 200.0 mg/kg/injection, schedule: Q04DX003 (ip), vehicle: saline 101 % of control | dose: 400.0 mg/kg/injection, schedule: Q04DX003 (ip), vehicle: saline 93 % of control

COc1c2ccccc2cc2ccccc12
inactive: dose: 50.0 mg/kg/injection, schedule: Q01DX009 (ip), vehicle: acetone 94 % of control | dose: 100.0 mg/kg/injection, schedule: Q01DX009 (ip), vehicle: acetone 92 % of control | dose: 200.0 mg/kg/injection, schedule: Q01DX009 (ip), vehicle: acetone 89 % of control

Cc1cc2c(cc1C)C(=O)C(N1CCN(C)CC1)CCC2 (stereo not drawn)
inactive: [2] 101 % of control

N#CC(C#N)=Cc1ccc(Cl)c(Cl)c1
inactive: dose: 50.0 mg/kg/injection, schedule: Q01DX001 (ip), vehicle: other 102 % of control | [9] 107 % of control | [3] 92 % of control | [6] 96 % of control | [10] 107 % of control | [4] 93 % of control | [7] 102 % of control | [5] 86 % of control | [8] 95 % of control

CCC(Br)C(=O)Nc1c(C)cccc1Cl (stereo not drawn)
inactive: dose: 25.0 mg/kg/injection, schedule: Q01DX009 (ip), vehicle: Klucel (hydroxypropylcellulose) (HPC) 97 % of control | dose: 50.0 mg/kg/injection, schedule: Q01DX009 (ip), vehicle: Klucel (hydroxypropylcellulose) (HPC) 98 % of control | [3] 94 % of control and 101 % of control | [6] 97 % of control | [7] 95 % of control | [8] 97 % of control

S=C(S)Nc1ccccc1
inactive: dose: 25.0 mg/kg/injection, schedule: Q01DX001 (ip), vehicle: Klucel (hydroxypropylcellulose) (HPC) 95 % of control | dose: 50.0 mg/kg/injection, schedule: Q01DX001 (ip), vehicle: Klucel (hydroxypropylcellulose) (HPC) 92 % of control | [18] 94 % of control and 95 % of control

CSc1ccc(NC(=O)Nc2cc(C)c(C)cc2C)cc1
inactive: dose: 100.0 mg/kg/injection, schedule: Q01DX009 (ip), vehicle: other 86 % of control | dose: 200.0 mg/kg/injection, schedule: Q01DX009 (ip), vehicle: other 93 % of control and 90 % of control | dose: 400.0 mg/kg/injection, schedule: Q01DX009 (ip), vehicle: other 93 % of control and 106 % of control
